Reference: patent publication US10226452B2, “Benzoxazolone derivatives as acid ceramidase inhibitors, and their use as medicaments” (FONDAZIONE ISTITUTO ITALIANO DI TECNOLOGIA, priority 2014, dated 2019)

Each compound was assayed against human (hAC) acid ceramidase (Homo sapiens (Human), UniProt Q13510) (assay: fluorescent-based in vitro assay on human acid ceramidase). Details: hAC-enriched lysosomal lysate from HEK293 cells; fluorogenic probe 5 μM; pH 4.5.
human (hAC) acid ceramidase, sequence (Q13510 22-142): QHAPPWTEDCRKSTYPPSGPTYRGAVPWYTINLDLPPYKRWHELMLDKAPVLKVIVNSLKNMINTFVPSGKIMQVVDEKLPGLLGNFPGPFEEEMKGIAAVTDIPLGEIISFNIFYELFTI
human (hAC) acid ceramidase, sequence (Q13510 143-395): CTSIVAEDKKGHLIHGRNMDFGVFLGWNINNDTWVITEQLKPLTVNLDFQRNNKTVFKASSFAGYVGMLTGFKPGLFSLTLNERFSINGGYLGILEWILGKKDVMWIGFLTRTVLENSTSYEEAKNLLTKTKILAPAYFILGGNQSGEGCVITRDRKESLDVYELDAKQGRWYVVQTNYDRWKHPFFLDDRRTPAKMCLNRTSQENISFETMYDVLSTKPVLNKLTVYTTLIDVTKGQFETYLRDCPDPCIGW
Format: biochemical
Text: To evaluate the potency of the compounds towards acid ceramidase, a fluorescence-based in vitro assay previously described in literature (Bedia C et al., ChemBioChem, 2007, 8, 642-648) was implemented and optimized. This assay is based on a “fluorogenic probe” containing a coumarin group and a sphingoid base moiety (see figure below), which is not fluorescent in itself, but upon enzymatic cleavage by acid ceramidase followed by a chemical transformation liberates the fluorescent molecule umbelliferone (7-hydroxychromen-2-one). By quantifying the generation of umbelliferone using a fluorescence plate-reader, the level of enzymatic activity can be measured, whereby IC50 values of compounds that inhibit this activity can be generated.
Lysosomal lysate, enriched with acid ceramidase, was prepared from a cell line stably expressing human acid ceramidase. In the assay, the fluorogenic probe (or substrate) serves as a ceramide-analogue, which is recognized and hydrolyzed at the amide bond by acid ceramidase from the enriched lysate to yield the fatty acid and coumarinic aminodiol. By treating the solution with sodium periodate (NaIO4), the coumarinic aminodiol is subsequently oxidized into an aldehyde intermediate, which undergoes a β-elimination reaction to release the strongly fluorescent umbelliferone.
A lysosomal human acid ceramidase protein preparation was obtained from HEK293 cells stably expressing acid ceramidase suspended in 20 mM Tris HCl (pH 7.5) with 0.32 M sucrose. The cell solution was sonicated and centrifuged at 800×g for 15 min at 4° C. Supernatants were then centrifuged at 12,000×g for 30 min at 4° C. Pellets were re-suspended in PBS pH 7.4 and subjected to two freeze-thaw cycles at −80° C. The suspension was finally centrifuged at 105,000×g for 1 hour at 4° C. and protein concentration was measured in the supernatant with bicinchinonic-acid based protein assay. This human acid ceramidase-enriched preparation allowed us to further optimize the enzymatic assay and to use smaller amounts of lysate (2 μg/well) and substrate (5 μM).
The assay was performed in Optiplate 96-wells black plates, with each reaction well containing a mixture of 25 mM sodium acetate buffer pH 4.5 and a fixed amount of protein (2 μg) in a volume of 85 μL. After 30 mins of pre-incubation with test compounds (diluted 20× from DMSO stock solutions at different concentrations), the fluorogenic probe was added (diluted 20× from EtOH stock solution, final concentration 5 μM). After incubation for 3 hours at 37° C., the reactions were stopped with 50 μL of methanol and 100 μL of a 2.5 mg/mL NalO4 fresh solution in 100 mM Glycine/NaOH pH 10.6. The plate was incubated at 37° C. for 2 hours in the dark and fluorescence intensities were measured at excitation/emission wavelengths of 360/446 nm. Negative control samples consisted of the same incubation mixture in the absence of protein extracts. The IC50 values or percent of inhibition, at the indicated concentration, of selected compounds described in the invention are reported in Table 2.
Compound `Cc1ccc(CCCCNC(=O)n2c(=O)oc3ccccc32)cc1` [Example 47, 2-Oxo-N-[4-(p-tolyl)butyl]-1,3-benzoxazole-3-carboxamide] has an IC50 of 28 nM. `O=C(NCCCc1cccc(F)c1)n1c(=O)oc2ccccc21` [Example 50, N-[3-(3-Fluorophenyl)propyl]-2-oxo-1,3-benzoxazole-3-carboxamide] showed an IC50 of 49 nM. Compound `O=C(NCCCCc1ccc2ccccc2c1)n1c(=O)oc2ccccc21` [Example 52, N-[4-(2-Naphthyl)butyl]-2-oxo-1,3-benzoxazole-3-carboxamide] has an IC50 of 57 nM. `O=C(NCCCCc1ccccc1)n1c(=O)oc2cccc(F)c21` [Example 56, 4-Fluoro-2-oxo-N-(4-phenylbutyl)-1,3-benzoxazole-3-carboxamide] was tested, and the IC50 was 1 ± 1 nM. Work on `O=C(NCCCCCc1ccccc1)n1c(=O)oc2ccccc21` [Example 57, 2-Oxo-N-(5-phenylpentyl)-1,3-benzoxazole-3-carboxamide] yielded an IC50 of 54 ± 12 nM. Work on `O=C(NCCCCCCc1ccccc1)n1c(=O)oc2ccccc21` [Example 58, 2-Oxo-N-(6-phenylhexyl)-1,3-benzoxazole-3-carboxamide] yielded an IC50 of 99 ± 58 nM. Work on `CCCCCCCNC(=O)n1c(=O)oc2ccccc21` [Example 59, N-Heptyl-2-oxo-1,3-benzoxazole-3-carboxamide] yielded an IC50 of 50 ± 7 nM.

Each compound was assayed on SW403 cells (assay: cells). Details: Homo sapiens, SW-403, read-out: EC50, SW403 cell viability.
Text: Combinatory index calculation of cell viability data analyzed with CompuSyn Software. The resulting combination index (CI) offers quantitative definition for additive effect (CI=1), synergism (CI<1), and antagonism (CI>1) in drug combinations. Results are expressed as mean±s.e.m. (n=8-16) of three independent experiments.
Finally, the CellTiter-Glo® Luminescent Cell Viability Assay can be used to determine the number of viable cells in culture based on quantitation of the ATP present, which signals the presence of metabolically active cells. Briefly, a volume of CellTiter-Glo® Reagent equal to the volume of cell culture medium present in each well is added to 96-well plates after drug treatment. Contents are mixed for 2 minutes on an orbital shaker to induce cell lysis and plate was incubated at room temperature for 10 minutes to stabilize signal before reading luminescence.
The compounds were added to the cultures once every 24 hours over a period of 72 hours and the effects of the combined treatments were evaluated using CompuSyn Software.
`O=c1[nH]cc(F)c(=O)[nH]1` [Example 5-FU, 5-fluorouracil] gave an EC50 of 736 nM.
